Test results: the NIST ThermoML archive (doi:10.1016/j.tca.2011.12.010)
Numbers after ± are expanded uncertainties.

Assay: Molar enthalpy of transition or fusion
Details: DSC

## O=[N+]([O-])[O-].O=[N+]([O-])[O-].O=[N+]([O-])[O-].O=[N+]([O-])[O-].[K+].[K+].[Mg+2] [bis-potassium magnesium nitrate]
Crystal 1
  Molar enthalpy of transition or fusion: 4.95 ± 0.151 kcal/mol
Crystal 2
  Molar enthalpy of transition or fusion: 0.648 ± 0.0478 kcal/mol
